Experiment [1] in a line: Fasting plasma glucose levels in alloxan-induced diabetic rabbits. The experiment is classed as in vivo, Japanese white rabbits. The settings on record: 3 mg/kg orally once a day. The protocol:
(§1) Diabetic model animals made by administrating alloxan (50 mg/kg) into Japanese white rabbits (body weight: 2.0 to 3.3 kg) were divided into 2 groups; one was a mitiglinide-treated group (n=5) in which mitiglinide calcium hydrate (3 mg/kg) suspended in 0.5% carboxymethylcellulose was administered orally once a day before feeding for 6 weeks from the next day of alloxan-administration to the day before experimental termination, and the other was the control group (n=4) in which 0.5% carboxymethylcellulose was administered in the same way. Two weeks after the alloxan-administration, the endothelium of the right common carotid artery was scraped using a balloon catheter, and then, the incision on the vessel wall was sutured with care not to cause stenosis. The left common carotid artery was used as a side of Sham-operation (the normal group). Four (4) weeks after the operation of scraping endothelium of a blood vessel, the bilateral common carotid arteries were removed, and the intimal, medial and luminal areas of the sections of the arteries were measured using a morphometric analyzer. Fasting plasma glucose levels were measured 2 weeks after the alloxan-administration (on the day of scraping the endothelium) and 6 weeks after the alloxan-administration (on the day of removing the arteries.

Experiment [2] deals with intimal hyperplasia of the common carotid artery. Description: Intimal hyperplasia of a blood vessel caused by scraping endothelium of common carotid artery in alloxan-induced diabetic rabbits. The experiment is classed as in vivo, Japanese white rabbits. The settings on record: 3 mg/kg orally once a day for 6 weeks; arteries removed 4 weeks after scraping endothelium; compared to the control group; FIG. 1. The protocol: Effect on Intimal Hyperplasia of a Blood vessel Caused by Scraping Endothelium of Common Carotid Artery in Rabbits
as §1, with “The left common carotid artery was used as a side of Sham-operation (the normal group).” left out

This note sets out measurements from patent publication US20070254938A1, “Preventive or Therapeutic Agent for Vascular Intimal Proliferative Disease” (priority 2004, published 2007).

Structures are written as SMILES.

Regarding `O=C(O)[C@H](CC(=O)N1C[C@H]2CCCC[C@H]2C1)Cc1ccccc1` [mitiglinide calcium hydrate, bis{(2S)-2-benzyl-3-(cis-hexahydro-2-isoindolinylcarbonyl)-propionic acid}calcium dihydrate], the “influence on fasting plasma glucose level” value in experiment [1] (2 weeks after alloxan-administration, FIG. 2) is on record as “no influence”; in experiment [1] (6 weeks after alloxan-administration, FIG. 3), “no influence”. In experiment [2], the “inhibitory effect on intimal hyperplasia (ratio of intimal area to medial area)” value is “significant inhibitory effect”.
